This is an account of results in ChEMBL document CHEMBL1201862, “PubChem BioAssay data set” (2004).

Some test systems named below: HCT-116; M14; Malme-3M; PC-3; OVCAR-4; SR; 786-0; HCT-15; NCI-H23; HL-60; A498; IGROV-1; NCI-H460; LOX IMVI; HCC 2998; SF-539; HOP-92; MDA-MB-435; UO-31; SF-295.
What all share (assay): NCI-60 cell line screen, 48 h

Each structure is given as a SMILES string. Values joined by “and” are separate entries in the source; they are usually repeats but may differ in a detail not shown here. Equal entries are not always repeated.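 Five concentrations, 48 hours, 96-well plates. Here, GI50 denotes the concentration required for 50% inhibition of growth.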 Active and inactive are the calls of the source. Rule as the data show it: active = GI50 up to about 1.1 µM and inactive = higher.

In the case of `C=C(Cl)C(Cl)(CBr)CCC(Br)C(C)(C)Cl` (stereo not given), the GI50 is 508 nM (active) and 1.95 µM (inactive) and 448 nM (active) in the experiment on HCT-116; 18.7 µM (inactive) and 15.6 µM (inactive) and 26.7 µM (inactive) in the experiment on M14; 13.6 µM (inactive) and 15.3 µM (inactive) and 7.36 µM (inactive) with Malme-3M; 1.6 µM (inactive) and 904 nM (active) and 1 µM (active) in the experiment on PC-3; 2.92 µM (inactive) and 1.6 µM (inactive) and 10.7 µM (inactive) in the experiment on OVCAR-4; 11.5 µM (inactive) and 4.53 µM (inactive) and 15 µM (inactive) with SR. The GI50 with 786-0 was 640 nM (active) and 175 nM (active) and 247 nM (active); in the experiment with HCT-15, 2.07 µM and 13.3 µM and 3.18 µM; in the experiment with NCI-H23, 22.4 µM (inactive) and 16.3 µM (inactive) and 12 µM (inactive); in the experiment on HL-60, 635 nM (active) and 733 nM (active) and 2.42 µM (inactive); in the experiment on A498, 1.63 µM (inactive) and 2.79 µM (inactive) and 2.03 µM (inactive); with IGROV-1, 11.9 µM (inactive) and 21.5 µM (inactive) and 8.41 µM (inactive). The GI50 with NCI-H460 is 2.34 µM (inactive) and 1.57 µM (inactive) and 1.45 µM (inactive); with LOX IMVI it was 19.1 µM (inactive) and 5.7 µM (inactive) and 15.6 µM (inactive); with HCC 2998, 3.15 µM (inactive) and 2.61 µM (inactive) and 1.59 µM (inactive); with SF-539, 1.95 µM (inactive) and 446 nM (active) and 1.27 µM (inactive); in the experiment on HOP-92, 2.63 µM (inactive) and 1.42 µM (inactive) and 1.35 µM (inactive); with MDA-MB-435, 2.18 µM (inactive) and 11.1 µM (inactive) and 1.77 µM (inactive). For the same compound, the GI50 in the experiment with UO-31 is 1.85 µM (inactive) and 6.27 µM (inactive) and 1.99 µM (inactive); in the experiment with SF-295, 1.79 µM (inactive) and 1.65 µM (inactive) and 1.35 µM (inactive).

Regarding `OCCCCCCOc1ccc(-c2cc(-c3ccccn3)nc(-c3ccccn3)c2)cc1`, the GI50 was 0.132 µM (active) in the experiment with HCT-116; 0.202 µM (active) with M14; 0.404 µM (active) with Malme-3M; 0.034 µM (active) with PC-3; 0.177 µM (active) in the experiment on OVCAR-4; 0.0286 µM (active) in the experiment on SR. The GI50 with 786-0 was 0.0944 µM (active); in the experiment with HCT-15, 0.109 µM; in the experiment on NCI-H23 it was 0.604 µM (active); in the experiment with HL-60, 0.0853 µM (active); in the experiment on A498 it was 1.11 µM (active); in the experiment on IGROV-1, 0.205 µM (active). Besides, the GI50 in the experiment with NCI-H460 is 0.104 µM (active); with LOX IMVI, 0.117 µM (active); with HCC 2998, 0.187 µM (active); in the experiment on SF-539, 0.143 µM (active); in the experiment with HOP-92, 0.643 µM (active); with MDA-MB-435 it was 0.462 µM (active). For the same compound, the GI50 in the experiment with UO-31 was 0.202 µM (active); in the experiment on SF-295, 0.194 µM (active).

Regarding `Cn1c(=O)nc2n(-c3ccc(Cl)cc3)c3cc(Cl)ccc3nc-2c1=O`, the GI50 was 3.92 µM (inactive) with HCT-116; 2.07 µM (inactive) in the experiment with M14; 1.89 µM (inactive) in the experiment with Malme-3M; 9.42 µM (inactive) in the experiment with PC-3; 1.32 µM (inactive) in the experiment with OVCAR-4; 3.93 µM (inactive) in the experiment on SR. Further, the GI50 in the experiment with 786-0 is 10.5 µM (inactive); in the experiment with HCT-15, 1.82 µM; in the experiment on NCI-H23 it was 3.33 µM (inactive); in the experiment with HL-60, 2.06 µM (inactive); in the experiment with A498, 14.3 µM (inactive); in the experiment with IGROV-1 it was 1.6 µM (inactive). Also, the GI50 was 10 µM (inactive) with NCI-H460; 2.03 µM (inactive) in the experiment on LOX IMVI; 4.49 µM (inactive) in the experiment on HCC 2998; 16.5 µM (inactive) with SF-539; 7.31 µM (inactive) in the experiment on HOP-92; 1.68 µM (inactive) in the experiment on MDA-MB-435. Also, the GI50 in the experiment on UO-31 is 11.4 µM (inactive); with SF-295 it was 10.9 µM (inactive).

`CSc1nc(SC)c2c(C)cn(C3OC(C)C(O)C(O)C3O)c2n1` (stereo not given): the GI50 with HCT-116 is > 100 µM (inactive); in the experiment on M14 it was 87.1 µM (inactive); with Malme-3M it was > 100 µM (inactive); in the experiment on PC-3, 43.9 µM (inactive); with OVCAR-4, 64.1 µM (inactive); in the experiment on SR, 33.3 µM (inactive). For the same compound, the GI50 with 786-0 is > 100 µM (inactive); in the experiment with HCT-15 it was 74.1 µM; with NCI-H23, 94 µM (inactive); with HL-60, 46.2 µM (inactive); in the experiment with A498, 27.9 µM (inactive); in the experiment on IGROV-1, 70 µM (inactive). The GI50 with NCI-H460 is 43.1 µM (inactive); in the experiment on LOX IMVI, 31.8 µM (inactive); in the experiment with HCC 2998, 57.5 µM (inactive); in the experiment with SF-539, 21 µM (inactive); in the experiment on HOP-92, 32.6 µM (inactive); in the experiment with MDA-MB-435, 40 µM (inactive). In addition, the GI50 is 36.3 µM (inactive) with UO-31 and 57 µM (inactive) with SF-295.

On to `COC(=O)C1=C(C(=O)OC)N(c2ccncc2)C(c2ccco2)=CC1c1ccccc1[N+](=O)[O-]` (stereo not given), for which the GI50 in the experiment on HCT-116 was 1.6 µM (inactive); in the experiment on M14, 4.21 µM (inactive); with Malme-3M it was 4.55 µM (inactive); in the experiment on PC-3, 11.5 µM (inactive); in the experiment on OVCAR-4, 5.97 µM (inactive); in the experiment with SR, 0.75 µM (active). In addition, the GI50 was 1.7 µM (inactive) in the experiment on 786-0; 1.89 µM with HCT-15; 13.9 µM (inactive) in the experiment on NCI-H23; 2.46 µM (inactive) in the experiment on HL-60; 5.24 µM (inactive) in the experiment with A498; 1.95 µM (inactive) in the experiment on IGROV-1. For the same compound, the GI50 with NCI-H460 was 6.11 µM (inactive); in the experiment on LOX IMVI it was 1.72 µM (inactive); in the experiment on HCC 2998 it was 2.03 µM (inactive); in the experiment on SF-539 it was 1.75 µM (inactive); in the experiment with HOP-92, 14.1 µM (inactive); in the experiment with MDA-MB-435, 6.15 µM (inactive). Moreover, the GI50 in the experiment with UO-31 was 3.57 µM (inactive); with SF-295, 6.19 µM (inactive).

As to `CC(=O)NNc1nc(C)c(C(/C=C/c2ccc([N+](=O)[O-])cc2)=N/N)s1`, the GI50 was > 100 µM (inactive) in the experiment on HCT-116; > 100 µM (inactive) in the experiment with M14; > 100 µM (inactive) in the experiment with Malme-3M; > 100 µM (inactive) in the experiment with PC-3; > 100 µM (inactive) in the experiment with OVCAR-4; 37.7 µM (inactive) in the experiment with SR. Also, the GI50 was > 100 µM (inactive) in the experiment with 786-0; over 100 µM in the experiment on HCT-15; > 100 µM (inactive) in the experiment on NCI-H23; 21 µM (inactive) in the experiment with HL-60; 70.5 µM (inactive) in the experiment with A498; 54 µM (inactive) in the experiment with IGROV-1. In addition, the GI50 with NCI-H460 is > 100 µM (inactive); with LOX IMVI it was 86.9 µM (inactive); in the experiment with HCC 2998 it was 66.1 µM (inactive); in the experiment with SF-539 it was > 100 µM (inactive); in the experiment with HOP-92, > 100 µM (inactive); with MDA-MB-435, > 100 µM (inactive). The GI50 in the experiment with UO-31 and in the experiment with SF-295 was > 100 µM (inactive) each time.
